Experimental data reported in US20090069317A1, “Insecticidal Methods Using 3-Amino-1,2-Benzisothiazole Derivatives” (BASF SE, priority 2005, published 2009).

Tests used:
Bean Aphid (Aphis fabae) = assay: Bean aphid (Aphis fabae) nasturtium plant dip test, mortality; assay type: in vivo; settings: 72 h, nasturtium plants dipped, aphid mortality after 3 days, read-out: mortality in comparison with untreated controls
Description: B.3. Bean Aphid (Aphis fabae)
(§1) The active compounds were formulated in 50:50 acetone:water and 100 ppm Kinetic® surfactant.
Nasturtium plants grown in Metro mix in the 1st leaf-pair stage (variety ‘Mixed Jewel’) were infested with approximately 20-30 laboratory-reared aphids by placing infested cut plants on top of the test plants. The cut plants were removed after 24 hr. Each plant was dipped into the test solution to provide complete coverage of the foliage, stem, protruding seed surface and surrounding cube surface and allowed to dry in the fume hood. The treated plants were kept at about 25° C. with continuous fluorescent light. Aphid mortality is determined after 3 days.

[1] = tested on: Green Peach Aphid (Myzus Persicae); assay: Green peach aphid (Myzus persicae) pepper leaf dip test, mortality; assay type: in vivo; settings: foliar, 120 h, pepper plant leaves dipped, aphid mortality after 5 days, read-out: mortality in comparison with untreated controls
Description: B.2 Green Peach Aphid (Myzus Persicae)
as §1
Pepper plants in the 2nd leaf-pair stage (variety ‘California Wonder’) were infested with approximately 40 laboratory-reared aphids by placing infested leaf sections on top of the test plants. The leaf sections were removed after 24 hr. The leaves of the intact plants were dipped into gradient solutions of the test compound and allowed to dry. Test plants were maintained under fluorescent light (24 hour photoperiod) at about 25° C. and 20-40% relative humidity. Aphid mortality on the treated plants, relative to mortality on check plants, was determined after 5 days.

[2] = tested on: Cotton Aphid (Aphis gossypii); assay: Cotton aphid (Aphis gossypii) cotyledon dip test, mortality; assay type: in vivo; settings: 120 h, cotton cotyledons dipped, mortality counts after 5 days, read-out: mortality in comparison with untreated controls
Description: B.1 Cotton Aphid (Aphis gossypii)
as §1
Cotton plants at the cotyledon stage (one plant per pot) were infested by placing a heavily infested leaf from the main colony on top of each cotyledon. The aphids were allowed to transfer to the host plant overnight, and the leaf used to transfer the aphids was removed. The cotyledons were dipped in the test solution and allowed to dry. After 5 days, mortality counts were made.

SMILES: CCN(CC)c1nsc2cccc(OC(F)F)c12 [Compound 59]
- melting point: 49 to 50 °C

SMILES: CN(CC#N)C1=NS(=O)(=O)c2cccc(Cl)c21 [Compound 15]
- mortality at 300 ppm (Bean Aphid (Aphis fabae)): > 86%
- mortality at 300 ppm [1]: > 86%
- mortality at 300 ppm [2]: > 86%

SMILES: C=CCN(C1=NS(=O)(=O)c2cccc(Cl)c21)C(C)C [Compound 9]
- mortality at 300 ppm (Bean Aphid (Aphis fabae)): > 86%
- mortality at 300 ppm [2]: > 86%

SMILES: C#CCN(C1=NS(=O)(=O)c2cccc(OC(F)F)c21)C(C)C [Compound 36]
- mortality at 300 ppm (Bean Aphid (Aphis fabae)): > 86%
- mortality at 300 ppm [1]: > 86%
- mortality at 300 ppm [2]: > 86%

SMILES: CCN(C)C1=NS(=O)(=O)c2cccc(Cl)c21 [Compound 7]
- mortality at 300 ppm (Bean Aphid (Aphis fabae)): > 86%
- mortality at 300 ppm [1]: > 86%
- mortality at 300 ppm [2]: > 86%

SMILES: CC(C)N(C1=NS(=O)(=O)c2cccc(Cl)c21)C(C)C [Compound 11]
- mortality at 300 ppm (Bean Aphid (Aphis fabae)): > 86%

SMILES: CON(C)C1=NS(=O)(=O)c2cccc(Cl)c21 [Compound 23]
- mortality at 300 ppm (Bean Aphid (Aphis fabae)): > 86%
- mortality at 300 ppm [1]: > 86%
- mortality at 300 ppm [2]: > 86%

SMILES: CCN(CC)C1=NS(=O)(=O)c2cccc(Cl)c21 [Compound 3]
- mortality at 300 ppm (Bean Aphid (Aphis fabae)): > 86%
- mortality at 300 ppm [1]: > 86%
- mortality at 300 ppm [2]: > 86%

SMILES: CC(C)N(C1=NS(=O)(=O)c2cccc(Cl)c21)C1CC1 [Compound 6]
- mortality at 300 ppm (Bean Aphid (Aphis fabae)): > 86%
- mortality at 300 ppm [1]: > 86%
- mortality at 300 ppm [2]: > 86%

SMILES: C=CCN(CCC)C1=NS(=O)(=O)c2cccc(Cl)c21 [Compound 8]
- mortality at 300 ppm (Bean Aphid (Aphis fabae)): > 86%
- mortality at 300 ppm [2]: > 86%

SMILES: C#CCN(C1=NS(=O)(=O)c2cccc(Cl)c21)C(C)C [Compound 4]
- mortality at 300 ppm (Bean Aphid (Aphis fabae)): > 86%
- mortality at 300 ppm [2]: > 86%

SMILES: CCN(C)C1=NS(=O)(=O)c2cccc(OC(F)F)c21 [Compound 34]
- mortality at 300 ppm [1]: > 86%
- mortality at 300 ppm [2]: > 86%

SMILES: CN(C)c1nsc2cccc(Cl)c12 [Compound 49]
- mortality at 300 ppm (Bean Aphid (Aphis fabae)): > 86%
- mortality at 300 ppm [1]: > 86%
- mortality at 300 ppm [2]: > 86%

SMILES: CCN(C)c1nsc2cccc(Cl)c12 [Compound 51]
- mortality at 300 ppm [1]: > 86%
- mortality at 300 ppm [2]: > 86%

SMILES: COc1c(Br)ccc2snc(N(C)C)c12 [Compound 48, (5-Bromo-4-methoxy-benzo[d]isothiazol-3-yl)-dimethyl-amine]
- mortality at 300 ppm [1]: > 86%
- mortality at 300 ppm [2]: > 86%

SMILES: CCCN(CC1CC1)C1=NS(=O)(=O)c2cccc(F)c21 [Compound 62]
- mortality at 300 ppm [1]: > 86%
- mortality at 300 ppm [2]: > 86%

SMILES: CCN(CC(C)C)C1=NS(=O)(=O)c2cccc(Cl)c21 [Compound 5]
- mortality at 300 ppm (Bean Aphid (Aphis fabae)): > 86%
- mortality at 300 ppm [2]: > 86%

SMILES: COc1cccc2snc(N(C)C(C)C)c12 [Compound 82]
- mortality at 300 ppm [1]: > 86%
- mortality at 300 ppm [2]: > 86%

SMILES: CN(C)C1=NS(=O)(=O)c2cccc(Cl)c21 [Compound 2]
- mortality at 300 ppm [1]: > 86%
- mortality at 300 ppm [2]: > 86%

SMILES: CN(CC#N)C1=NS(=O)(=O)c2cccc(OC(F)F)c21 [Compound 37]
- mortality at 300 ppm [1]: > 86%
- mortality at 300 ppm [2]: > 86%

SMILES: COc1ccc(F)c2c1C(N(C)CC#N)=NS2(=O)=O [Compound 96]
- mortality at 300 ppm [1]: > 86%
- mortality at 300 ppm [2]: > 86%

SMILES: CN(CC(F)(F)F)C1=NS(=O)(=O)c2cccc(OC(F)F)c21 [Compound 53]
- mortality at 300 ppm [1]: > 86%
- mortality at 300 ppm [2]: > 86%

SMILES: CCN(C)C1=NS(=O)(=O)c2cccc(F)c21 [Compound 64]
- mortality at 300 ppm [1]: > 86%
- mortality at 300 ppm [2]: > 86%

SMILES: CCN(C)c1nsc2cccc(OC)c12 [Compound 81]
- mortality at 300 ppm [1]: > 86%
- mortality at 300 ppm [2]: > 86%

SMILES: CCCN(C)C1=NS(=O)(=O)c2cccc(OC(F)F)c21 [Compound 38]
- mortality at 300 ppm [1]: > 86%
- mortality at 300 ppm [2]: > 86%

SMILES: CCN(Cc1ccccc1)C1=NS(=O)(=O)c2cccc(Cl)c21 [Compound 12]
- mortality at 300 ppm (Bean Aphid (Aphis fabae)): > 86%

SMILES: CCN(CC)C1=NS(=O)(=O)c2cccc(OC)c21 [Compound 27]
- mortality at 300 ppm [1]: > 86%
- mortality at 300 ppm [2]: > 86%
